Patent publication US11685734B2, “ATM kinase inhibitors and compositions and methods of use thereof” (CHDI Foundation, Inc., priority 2019, dated 2023)

Assays:
cellular ATM activity = cellular ATM activity (Homo sapiens (Human), UniProt Q13315); test: Inhibition of cellular ATM activity: etoposide-stimulated KAP1 phosphorylation in U20S cells; format: cell-based; conditions: 100 μM etoposide, 60 min, read-out: ATM CELL IC50
[1] = molecular target: Recombinant, full length human FLAG-tagged ATM (Homo sapiens (Human), UniProt Q13315); test: ATM ELISA for p53 S15 phosphorylation; format: biochemical; conditions: 0.75 nM ATM, 25 nM p53, 10 μM ATP, 30 min at 20° C.; read-out: ATM BIO IC50
Procedure, shortened: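 ELISA of p53 S15 phosphorylation by 0.75 nM full-length FLAG-ATM, with 25 nM myc-p53 and 10 μM ATP in HEPES pH 7.5 with Mg/Mn, 30 min at 20° C. Reactions were EDTA-stopped, captured on anti-myc and detected with anti-pS15/HRP-TMB at 450 nm.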

Chain of cellular ATM activity (Q13315 whole entry): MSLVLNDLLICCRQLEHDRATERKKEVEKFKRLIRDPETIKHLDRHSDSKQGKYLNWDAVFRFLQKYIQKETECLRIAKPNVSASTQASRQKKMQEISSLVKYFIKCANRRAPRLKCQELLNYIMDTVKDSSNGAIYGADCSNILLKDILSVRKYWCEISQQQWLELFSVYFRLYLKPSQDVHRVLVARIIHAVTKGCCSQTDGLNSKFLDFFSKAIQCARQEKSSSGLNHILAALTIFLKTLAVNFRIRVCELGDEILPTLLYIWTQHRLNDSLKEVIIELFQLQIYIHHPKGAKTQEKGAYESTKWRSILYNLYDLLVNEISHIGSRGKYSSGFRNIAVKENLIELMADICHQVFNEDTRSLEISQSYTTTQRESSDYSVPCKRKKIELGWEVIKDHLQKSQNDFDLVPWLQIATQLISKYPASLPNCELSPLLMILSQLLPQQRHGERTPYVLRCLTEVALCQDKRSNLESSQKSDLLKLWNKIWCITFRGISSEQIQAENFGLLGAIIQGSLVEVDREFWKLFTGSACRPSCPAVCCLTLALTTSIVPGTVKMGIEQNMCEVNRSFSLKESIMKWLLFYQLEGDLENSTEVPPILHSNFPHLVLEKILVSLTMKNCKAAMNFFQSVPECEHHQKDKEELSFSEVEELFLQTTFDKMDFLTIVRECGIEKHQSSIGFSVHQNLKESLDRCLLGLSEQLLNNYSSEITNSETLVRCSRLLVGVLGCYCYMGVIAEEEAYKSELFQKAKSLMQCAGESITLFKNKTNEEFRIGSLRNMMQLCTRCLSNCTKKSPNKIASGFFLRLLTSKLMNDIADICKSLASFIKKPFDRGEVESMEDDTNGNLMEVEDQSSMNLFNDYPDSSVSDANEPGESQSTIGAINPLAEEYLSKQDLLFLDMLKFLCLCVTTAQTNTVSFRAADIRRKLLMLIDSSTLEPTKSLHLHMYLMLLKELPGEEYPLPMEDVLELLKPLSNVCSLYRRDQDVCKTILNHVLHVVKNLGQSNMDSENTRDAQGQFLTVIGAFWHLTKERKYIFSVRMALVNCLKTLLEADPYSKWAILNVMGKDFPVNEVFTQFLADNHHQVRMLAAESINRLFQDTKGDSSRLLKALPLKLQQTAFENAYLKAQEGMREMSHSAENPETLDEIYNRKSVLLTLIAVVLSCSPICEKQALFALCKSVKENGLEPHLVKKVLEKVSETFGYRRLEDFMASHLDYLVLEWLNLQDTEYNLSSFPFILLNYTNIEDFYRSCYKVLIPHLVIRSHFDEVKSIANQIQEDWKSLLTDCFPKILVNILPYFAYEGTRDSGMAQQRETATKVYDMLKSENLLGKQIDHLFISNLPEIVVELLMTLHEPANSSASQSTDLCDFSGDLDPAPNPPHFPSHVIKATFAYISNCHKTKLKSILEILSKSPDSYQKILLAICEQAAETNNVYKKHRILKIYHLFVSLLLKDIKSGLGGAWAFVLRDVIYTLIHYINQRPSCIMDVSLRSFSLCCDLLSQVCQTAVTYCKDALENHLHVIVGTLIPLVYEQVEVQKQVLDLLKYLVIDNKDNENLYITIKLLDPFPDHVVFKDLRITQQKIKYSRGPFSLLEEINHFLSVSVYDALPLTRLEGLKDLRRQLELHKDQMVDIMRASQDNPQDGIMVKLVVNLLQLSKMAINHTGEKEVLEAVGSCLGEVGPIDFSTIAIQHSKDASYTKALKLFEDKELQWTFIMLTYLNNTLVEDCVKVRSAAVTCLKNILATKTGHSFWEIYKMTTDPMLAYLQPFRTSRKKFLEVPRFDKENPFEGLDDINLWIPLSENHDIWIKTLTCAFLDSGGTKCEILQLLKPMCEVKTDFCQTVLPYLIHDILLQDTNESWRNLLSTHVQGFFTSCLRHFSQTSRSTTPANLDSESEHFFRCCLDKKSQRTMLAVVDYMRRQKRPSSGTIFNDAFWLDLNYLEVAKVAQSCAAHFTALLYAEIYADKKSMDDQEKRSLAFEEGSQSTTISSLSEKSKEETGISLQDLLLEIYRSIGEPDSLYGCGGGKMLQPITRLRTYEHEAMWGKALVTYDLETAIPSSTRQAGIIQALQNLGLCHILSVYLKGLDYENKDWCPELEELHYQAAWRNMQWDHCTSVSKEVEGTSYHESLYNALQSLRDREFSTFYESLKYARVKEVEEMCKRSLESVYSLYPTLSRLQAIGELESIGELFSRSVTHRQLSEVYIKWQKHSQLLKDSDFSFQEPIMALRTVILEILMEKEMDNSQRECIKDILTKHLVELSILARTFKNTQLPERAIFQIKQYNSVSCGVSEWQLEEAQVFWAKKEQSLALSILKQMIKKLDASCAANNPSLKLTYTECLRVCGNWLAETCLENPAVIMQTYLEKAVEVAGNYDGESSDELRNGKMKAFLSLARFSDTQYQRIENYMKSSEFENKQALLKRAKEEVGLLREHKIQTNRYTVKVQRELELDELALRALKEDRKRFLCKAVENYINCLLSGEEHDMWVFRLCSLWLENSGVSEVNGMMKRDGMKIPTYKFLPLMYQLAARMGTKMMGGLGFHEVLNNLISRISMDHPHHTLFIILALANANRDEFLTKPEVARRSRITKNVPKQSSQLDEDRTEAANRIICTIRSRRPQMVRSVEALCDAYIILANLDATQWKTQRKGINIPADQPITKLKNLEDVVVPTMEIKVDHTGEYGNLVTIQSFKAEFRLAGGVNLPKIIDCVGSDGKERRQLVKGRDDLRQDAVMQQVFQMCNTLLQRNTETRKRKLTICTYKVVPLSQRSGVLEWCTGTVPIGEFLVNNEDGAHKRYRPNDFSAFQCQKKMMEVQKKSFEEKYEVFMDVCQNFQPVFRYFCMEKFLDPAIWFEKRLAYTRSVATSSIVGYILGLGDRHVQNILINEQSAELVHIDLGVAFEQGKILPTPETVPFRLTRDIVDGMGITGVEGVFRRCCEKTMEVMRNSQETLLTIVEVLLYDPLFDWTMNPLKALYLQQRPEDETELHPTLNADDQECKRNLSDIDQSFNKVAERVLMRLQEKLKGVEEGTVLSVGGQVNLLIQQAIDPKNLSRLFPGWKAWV
Chain of Recombinant, full length human FLAG-tagged ATM (Q13315 whole entry): as above

Row | SMILES | IC50 (cellular ATM activity) [nM] | IC50 [1] [nM]
1 | COc1ccc(C[C@H]2CCCCCN2c2cc(N3CCOCC3)cc(=O)[nH]2)cc1 [Example 29, 6-[(2R)-2-[(4-methoxyphenyl)methyl]azepan-1-yl]-4-morpholino-1H-pyridin-2-one] | 371 | 32.5
2 | Cn1c(N2CCC[C@@H]2Cc2ccccc2)cc(N2CCOCC2)cc1=O [Example 173, (R)-6-(2-benzylpyrrolidin-1-yl)-1-methyl-4-morpholinopyridin-2(1H)-one] | 1900 | 37.8
3 | O=c1cc(N2CCOCC2)nc(N2CCCCC[C@@H]2Cc2ccccc2Cl)[nH]1 [Example 205] | 797 | 39.6
4 | O=c1cc(N2CCOCC2)nc(N2C[C@H]3C[C@H]3[C@@H]2Cc2ccccc2)[nH]1 [Example 213] | 134 | 1.1
5 | COc1ccccc1C[C@H]1C[C@@H](C)CCCN1c1nc(N2CCOCC2)cc(=O)[nH]1 [Example 237] | 592 | 35.6
6 | C[C@@H]1CN(c2cc(=O)[nH]c(N3CCC[C@@H]3Cc3ccc(F)cc3)n2)CCO1 [Example 281, 2-[(2R)-2-[(4-fluorophenyl)methyl]pyrrolidin-1-yl]-4-[(2R)-2-methylmorpholin-4-yl]-1H-pyrimidin-6-one] | 627 | 34.9
7 | O=c1cc(N2CCOCC2)cc(N2CCCCC[C@@H]2Cc2ccccn2)[nH]1 [Example 33, (R)-4-morpholino-6-(2-(pyridin-2-ylmethyl)azepan-1-yl)pyridin-2(1H)-one] | 1780 | 92.4
8 | COc1ccccc1C[C@H]1[C@@H](F)CCN1c1nc(N2CCO[C@H](C)C2)cc(=O)[nH]1 [Example 324] | 1680 | 5.4
9 | O=c1cc(N2CCOCC2)nc(N2CCCC[C@@H]2Cc2ccccc2)[nH]1 [Example 199] | 125 | 2.8
10 | O=c1cc(N2CCOCC2)nc(N2CCC[C@@H]2Cc2ccc(Cl)c(Cl)c2)[nH]1 [Example 190] | 939 | 4.2
11 | O=c1cc(N2CCOCC2)nc(N2CC[C@@H](F)[C@@H]2Cc2ccccc2)[nH]1 [Example 259, 2-((2S,3R)-2-benzyl-3-fluoropyrrolidin-1-yl)-6-morpholinopyrimidin-4(3H)-one] | 196 | 1.7
12 | Cc1cc(C[C@H]2CCCN2c2nc(N3CCO[C@H](C)C3)cc(=O)[nH]2)cc(C)n1 [Example 277, 2-[(2R)-2-[(2,6-dimethyl-4-pyridyl)methyl]pyrrolidin-1-yl]-4-[(2R)-2-methylmorpholin-4-yl]-1H-pyrimidin-6-one] | 417 | 57
13 | O=c1cc(N2CCOCC2)nc(N2CC[C@@H](O)[C@@H]2Cc2ccccc2)[nH]1 [Example 258, 2-((2S,3R)-2-benzyl-3-hydroxypyrrolidin-1-yl)-6-morpholinopyrimidin-4(3H)-one] | 881 | 6.8
14 | CC1CCC[C@H](Cc2ccccc2)N(c2nc(N3CCOCC3)cc(=O)[nH]2)C1 (single isomer, unassigned) [Example 247] | 194 | 1.5
15 | COc1ccccc1C[C@H]1CCCCCN1c1cc(N2CCOCC2)cc(=O)[nH]1 [Example 27, (R)-6-(2-(2-methoxybenzyl)azepan-1-yl)-4-morpholinopyridin-2(1H)-one] | 501 | 16.6
16 | C[C@@H](c1ccccc1)[C@@H]1CCCN1c1nc(N2CCOCC2)cc(=O)[nH]1 [Example 250, 6-morpholino-2-((S)-2-((S)-1-phenylethyl)pyrrolidin-1-yl)pyrimidin-4(3H)-one] | 153 | 5
17 | O=c1cc(N2CCOCC2)cc(N2C[C@@H]3CCC[C@@H]3[C@@H]2Cc2ccccc2)[nH]1 [Example 124] | 248 | 3.3
18 | O=c1cc(N2CCOCC2)nc(N2CCCCC[C@@H]2Cc2ccsc2)[nH]1 [Example 248] | 421 | 3.9
19 | O=c1cc(N2CCOCC2)nc(N2CCCC(F)(F)C[C@@H]2Cc2ccccc2)[nH]1 [Example 244] | 273 | 10.2
20 | C[C@@H]1CN(c2cc(=O)[nH]c(N3CC[C@@H](C)[C@@H]3Cc3ccccc3)n2)CCO1 [Example 294, 2-((2S,3R)-2-benzyl-3-methylpyrrolidin-1-yl)-6-((R)-2-methylmorpholino)pyrimidin-4(3H)-one] | 423 | 20.9
21 | COC[C@@H](C)Oc1cccc(C[C@H]2CCCN2c2cc(N3CCOCC3)cc(=O)[nH]2)c1 [Example 148, 6-((R)-2-(3-(((R)-1-methoxypropan-2-yl)oxy)benzyl)pyrrolidin-1-yl)-4-morpholinopyridin-2(1H)-one] | 1170 | 41.8
22 | O=c1cc(N2CCOCC2)nc(N2CCC(F)(F)[C@@H]2Cc2ccccc2)[nH]1 [Example 253, (S)-2-(2-benzyl-3,3-difluoropyrrolidin-1-yl)-6-morpholinopyrimidin-4(3H)-one] | 434 | 11.3
23 | COc1ccccc1C[C@H]1[C@H](C)CCN1c1cc(N2CCOCC2)cc(=O)[nH]1 [Example 47, 6-((2S,3R)-2-(2-methoxybenzyl)-3-methylpyrrolidin-1-yl)-4-morpholinopyridin-2(1H)-one] | 347 | 8.3
24 | CO[C@@H]1CCN(c2nc(N3CCOCC3)cc(=O)[nH]2)[C@H]1Cc1ccccc1 [Example 257, 2-((2S,3R)-2-benzyl-3-methoxypyrrolidin-1-yl)-6-morpholinopyrimidin-4(3H)-one] | 411 | 4
25 | COc1cccc(C[C@H]2CCCN2c2cc(N3CCOCC3)cc(=O)[nH]2)c1 [Example 22, (R)-6-(2-(3-methoxybenzyl)pyrrolidin-1-yl)-4-morpholinopyridin-2(1H)-one] | 2680 | 55.3
26 | C[C@@H]1CCN(c2nc(N3CCOCC3)cc(=O)[nH]2)[C@H]1Cc1ccccc1 [Example 215] | 74 | 1
27 | O=c1cc(N2CCOCC2)cc(N2C[C@H]3CCC[C@H]3[C@@H]2Cc2ccccc2)[nH]1 [Example 123] | 861 | 21.2
